From patent US20250221932A1, “IMMUNE ENHANCEMENT OF CANCER TREATMENT” (Spark Therapeutics, Inc., priority 2022, published 2025)

Key:
C1498 cells = assay: Acute myeloid leukemia (AML) model, survival; assay type: in vivo, mice (C57BL/6); details: 50 μg i.v. day 0, 3, 6; FIG. 9
Method: The ability of nanoparticle dsDNA delivery to inhibit leukemia was evaluated in a mouse model for acute myeloid leukemia (AML). The AML model was established by intravenously (i.v.) injecting C57BL/6 mice with 1×10^6 C1498 cells. (See Zhang et al., Blood 2009; 114 (8): 1545-1552 and Curran et al., 2016, Cell Reports 15, 2357-2366).
(§1) Three days post-tumor cell injection, treatment (vehicle, DNA-LNP (10 μg), ADU-S100 (50 μg)) was provided by 100 μL i.v. administration given three times (day 0, 3, 6). Vehicle was made of 20% Glucose/PBS solution. LNP composition (in mole %) was Lipid 9, ˜50% (Lipid 9 is further described in Section I.A. supra and Sabnis et al., (2018) Molecular Therapy 26:6, 1509-1519); C14-PEG2000, ˜1.5%; cholesterol, ˜38.5%; and distearoylphosphatidylcholine (DSPC), ˜10%. ADU-S100 is a STING agonist (MedChemExpress).
(§2) Serum was collected 4 hours after the first dose for cytokine/chemokine analyses. Mice (n=8) were observed daily for abnormalities and euthanized individually when the animal reached the humane endpoint.
The ability of nanoparticle dsDNA delivery to inhibit leukemia was evaluated in the AML mouse model described in Example 5. Three days post-tumor cell injection, administration of vehicle, LNP (same amount of LNP as used in 5 μg DNA-LNP), DNA-LNP (1 μg), DNA-LNP (5 μg) was provided by 100 μL i.v. given three times (day 0, 3, 6). […]

[1] = tested on: serum cytokines/chemokines; assay: Serum cytokine levels 4 hours after dosing in the AML model; assay type: in vivo, mice (C57BL/6); details: 4 hours after first i.v. dose, 50 μg
Method: as §1, §2
Three days post-tumor cell injection, treatment (vehicle, DNA-LNP (5 μg), DNA-LNP2 (5 μg)) was provided by 100 μL i.v. administration given three times (day 0, 3, 6). Serum was collected 4 hours after the first dose for cytokine/chemokine analyses. Mice (n=8) were observed daily for abnormalities and euthanized individually when the animal reached the humane endpoint.

Q: With `Nc1ncnc2c1ncn2[C@@H]1O[C@@H]2COP(=O)([S-])O[C@@H]3[C@H](O)[C@@H](COP([O-])(=S)O[C@H]2[C@H]1O)O[C@H]3n1cnc2c(N)ncnc21.[Na+].[Na+]` (stereo partly shown) [ADU-S100] as the molecule, how does the “survival in the AML model” value (C1498 cells) read?
A: Its value is “increased survival”.

Q: What about the “Serum level GRO alpha, Average” value [1] of the same molecule?
A: Its value is 134 pg/mL.

Q: What about the “Serum level IFN alpha, Average” value [1] of the same molecule?
A: Its value is 1775 pg/mL.

Q: What about the “Serum level IFN beta, Average” value [1] of the same molecule?
A: The value was 2819 pg/mL.

Q: What about the “Serum level IFN gamma, Average” value [1] of the same molecule?
A: The value was 7 pg/mL.

Q: And the “Serum level IL-6, Average” value [1]?
A: The value was 2617 pg/mL.

Q: What about the “Serum level IL-18, Average” value [1] of the same molecule?
A: The value was 150 pg/mL.

Q: What about the “Serum level MCP-1, Average” value [1] of the same molecule?
A: Its value is 5571 pg/mL.

Q: And the “Serum level MIP-1 beta, Average” value [1]?
A: The value was 640 pg/mL.

Q: What about the “Serum level TNF alpha, Average” value [1] of the same molecule?
A: Its value is 732 pg/mL.
